From patent US20080254023A1, “Treating Gliosis, Glial Scarring, Inflammation or Inhibition of Axonal Growth in the Nervous System by Modulating Eph Receptor” (THE UNIVERSITY OF QUEENSLAND, priority 2004, published 2008)

Key:
Type in all cases: cell-based, mice
EphA4 [1] = assay: EphA4 expression in cultured astrocytes (Western analysis); settings: 72 hrs, compared with untreated controls
Description: (§1) For biochemical analysis of astrocytes, factors as indicated were added to 80% confluent monolayers in 10 cm plates (Falcon, USA) for the times indicated. EphrinA5-Fc (available from the inventors) was pre-complexed as above.
(§2) Cells were lysed and a sample kept aside for analysis of total protein levels. The remainder of the lysate was used for immunoprecipitation in EphA4 or Rho activation assays. EphA4 activation was determined by immunoprecipitation of phosphorylated proteins using anti-phosphotyrosine (Cell Signaling), followed by Western transfer and detection of activated or total EphA4 using a rabbit anti-EphA4 antibody (kindly provided by Dr. D. Wilkinson, National Institute for Medical Research, London). Rho activation assays were performed using the Rhotekin RBD assay, according to the manufacturer's instructions (Upstate, USA). Total EphA4 and β-actin expression levels were determined in non-lesioned and 7 d post-lesioned spinal cords by Western analysis using rabbit anti-EphA4 antibody as above and mouse anti-β-actin antibody (Sigma). Densitometry was performed on the autoradiographs using NIH Image software to determine relative levels of the EphA4 bands and normalized to β-actin levels.

astrocytes = assay: In vitro astrocyte proliferation assay (MTT); settings: up to 72 hrs, LIF 1000 U/ml, IFN-γ 100 U/ml; for proliferation of WT astrocytes: wildtype astrocytes
Description: The [3-(4,5-dimethylthiazol-2-yl)-2,5-diphenyl]tetrazolium bromide (MTT) assay, which determines mitochondrial activity in living cells, is commonly used as a proliferation assay (Mosmann, J Immunol Methods 65:55-63, 1983). Living cells transform the tetrazolium ring into dark blue formazan crystals, which can be quantified by reading the optical density (O.D.); an increase in O.D. correlates with an increase in cell number over time. Wildtype and EphA4−/− astrocytes were plated on 96 well plates (Falcon) at 3×10^3 cells/well in DMEM supplemented with 10% FCS in the presence or absence of either LIF (1000 U/ml) or IFN-γ (100 U/ml). The MTT assay was performed at 2, 24, 48 and 72 hours after plating. MTT (0.25 mg/ml) was incubated with the cells at each timepoint for 2 hours at 37° C., the cells were then lysed with an equal volume of acidic isopropanol (0.04M HCL in absolute isopropanol) and the O.D. of the formazan product was measured at 550-650 nm.

Rho = Rho activation in cultured astrocytes (Rhotekin RBD assay)
Description: as §1, §2

EphA4 [2] = molecular target: T1, EphA4 (Mus musculus, UniProt Q03137); assay: EphA4 phosphorylation in cultured astrocytes (anti-phosphotyrosine immunoprecipitation, Western)
T1 construct: chamber slides (Falcon, USA) containing wildtype or EphA4−/− astrocyte monolayers; endogenous in cells; host or cells: primary purified astrocyte cultures from wildtype mice
Description: as §1, §2

T1 sequence (Q03137 20-986): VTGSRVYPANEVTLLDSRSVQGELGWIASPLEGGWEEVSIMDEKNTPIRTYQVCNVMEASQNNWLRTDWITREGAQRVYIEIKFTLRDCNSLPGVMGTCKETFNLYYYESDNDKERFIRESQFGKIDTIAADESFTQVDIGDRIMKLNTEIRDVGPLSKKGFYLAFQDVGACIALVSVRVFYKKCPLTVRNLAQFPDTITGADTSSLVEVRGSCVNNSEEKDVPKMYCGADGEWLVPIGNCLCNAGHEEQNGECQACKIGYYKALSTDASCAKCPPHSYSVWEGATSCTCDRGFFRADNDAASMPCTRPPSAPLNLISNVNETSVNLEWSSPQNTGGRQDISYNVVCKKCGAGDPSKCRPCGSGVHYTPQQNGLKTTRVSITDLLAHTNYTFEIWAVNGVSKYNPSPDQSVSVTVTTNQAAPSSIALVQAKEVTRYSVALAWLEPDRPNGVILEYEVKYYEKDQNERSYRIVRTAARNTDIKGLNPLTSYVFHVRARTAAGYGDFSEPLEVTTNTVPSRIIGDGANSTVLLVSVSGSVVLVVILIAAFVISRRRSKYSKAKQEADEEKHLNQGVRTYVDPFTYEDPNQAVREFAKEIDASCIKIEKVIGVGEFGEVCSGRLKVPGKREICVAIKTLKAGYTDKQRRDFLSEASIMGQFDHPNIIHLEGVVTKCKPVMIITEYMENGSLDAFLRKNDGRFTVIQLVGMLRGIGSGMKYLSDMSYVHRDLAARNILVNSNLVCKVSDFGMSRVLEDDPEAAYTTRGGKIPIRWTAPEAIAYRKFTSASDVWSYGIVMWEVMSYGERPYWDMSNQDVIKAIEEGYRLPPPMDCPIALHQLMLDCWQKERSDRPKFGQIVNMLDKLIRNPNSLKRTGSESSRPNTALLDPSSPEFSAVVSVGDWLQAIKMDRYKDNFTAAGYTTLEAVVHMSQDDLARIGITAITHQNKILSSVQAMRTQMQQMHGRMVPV

Question: “IFNγ: Interferon-γ, inflammatory cytokine, inducer of astrocytic gliosis” was tested. Which “upregulation of EphA4 expression on astrocytes” value (shortened to “upregulation of EphA4 expression”) (EphA4 [1]) did it give?
Answer: Its value is 56%.

Question: What about the “proliferation response of EphA4−/− astrocytes” value (astrocytes) of the same molecule?
Answer: Its value is “markedly decreased”.

Question: And the “proliferation of WT astrocytes” value (astrocytes)?
Answer: The value was “increased proliferation”.

Question: And the “Rho activation (RhoGTP) in EphA4−/− astrocytes” value (Rho; EphA4−/− astrocytes in culture)?
Answer: The value was “not”.

Question: What about the “Rho activation (RhoGTP) in wildtype astrocytes” value (Rho; wildtype astrocytes in culture) of the same molecule?
Answer: The value was “activated Rho”.

Question: How did the “upregulation of EphA4 expression” value (EphA4 [1]) turn out when “LIF: Leukemia inhibitory factor, inflammatory cytokine” was run?
Answer: Its value is 69%.

Question: What about the “upregulation of EphA4 phosphorylation” value (EphA4 [2]) of the same molecule?
Answer: Its value is 2 fold.

Question: And the “proliferation response of EphA4−/− astrocytes” value (astrocytes)?
Answer: Its value is “markedly decreased”.

Question: What about the “proliferation of WT astrocytes” value (astrocytes) of the same molecule?
Answer: The value was “increased proliferation”.

Question: With TNFα as the molecule, how does the “upregulation of EphA4 expression” value (EphA4 [1]) read?
Answer: The value was “no effect”.

B1: IFNγ: Interferon-γ, inflammatory cytokine, inducer of astrocytic gliosis (protein, UniProt P01579 24-161, looked up)
Interferon gamma: QDPYVKEAENLKKYFNAGHSDVADNGTLFLGILKNWKEESDRKIMQSQIVSFYFKLFKNFKDDQSIQKSVETIKEDMNVKFFNSNKKKRDDFEKLTNYSVTDLNVQRKAIHELIQVMAELSPAAKTGKRKRSQMLFRG
Question: With B1 as the molecule, how does the “upregulation of EphA4 phosphorylation” value (EphA4 [2]) read?
Answer: The value was 2 fold.
